Experimental data from patent EP0337459A2, “Platinum complex, process for preparing same and antitumor agent” (TORAY INDUSTRIES, INC., priority 1988, dated 1989).
Several values for one entry are separate records, joined by “and”; a condition that tells them apart may be missing. Identical values can stand only once.

Legend:
[1] = tested on: L1210 Mouse Leukemia; test: Antitumor activity against L1210 mouse leukemia inoculated i.p. in mice; assay type: in vivo, CDF₁ mouse; conditions: for Survival days (mean ± standard deviation) / T/C (%): CDF₁ mice; for Survival rate: living mice on the 30th day / mice in group
Method: Approximately 10⁵ cells of mouse leukemia L1210 which had been subcultured in DBA/2 mice were inoculated into the abdominal cavity of CDF₁ mouse (male, 6 weeks old, each group consisting of 6 to 10 mice). […] CDDP and CBDCA were tested as the positive control. Each complex tested was used in the form of a solution or suspension in 0.05% "Tween 80"-saline or in distilled water. Antitumor activity was evaluated based on the T/C value, calculated according to the following formula: [formula] The number of living mice was also recorded on the 30th day.

[2] = tested on: Slc:ICR mice; test: Acute toxicity test in mice (LD50, Miller-Tainter method); assay type: in vivo; conditions: intraperitoneal, Slc:ICR mice (male), death rate on the 14th day
Method: The acute toxicity test of the compounds of the present invention to mice were carried out by using CDDP as the control. Platinum complexes to be tested was administered intraperitoneally to Slc:ICR mice (male, 5 weeks old, 6 mice/group). Each complex was used in the form of a solution or suspension in a 0.05% "Tween 80" - saline. The LD₅₀ value was calculated by the Miller-Tainter method from the death rate on the 14th day from the date of the administration.

[3] = dose 1 mg/kg i.p. on Day 1, 5 and 9
[4] = dose 10 mg/kg i.p. on Day 1, 5 and 9
[5] = dose 25 mg/kg i.p. on Day 1, 5 and 9
[6] = dose 50 mg/kg i.p. on Day 1, 5 and 9
[7] = dose 100 mg/kg i.p. on Day 1, 5 and 9
[8] = dose 200 mg/kg i.p. on Day 1, 5 and 9
[9] = dose 5 mg/kg i.p. on Day 1, 5 and 9
[10] = dose 2.5 mg/kg i.p. on Day 1, 5 and 9, 2.5 mg/kg
[11] = dose 5 mg/kg i.p. on Day 1, 5 and 9, 5 mg/kg
[12] = dose 7.5 mg/kg i.p. on Day 1, 5 and 9, 7.5 mg/kg

| Compound | Survival days (mean ± standard deviation) [1, 3] [days] | T/C (%) [1, 3] [%] | Survival days (mean ± standard deviation) [1, 4] [days] | T/C (%) [1, 4] [%] | Survival days (mean ± standard deviation) [1, 5] [days] | T/C (%) [1, 5] [%] | Survival days (mean ± standard deviation) [1, 6] [days] | T/C (%) [1, 6] [%] | Survival days (mean ± standard deviation) [1, 7] [days] | T/C (%) [1, 7] [%] | Survival days (mean ± standard deviation) [1, 8] [days] | T/C (%) [1, 8] [%] | Survival rate [1, 3] | Survival rate [1, 4] | Survival rate [1, 5] | Survival rate [1, 6] | Survival rate [1, 7] | Survival rate [1, 8] | LD₅₀ Value [2] [mg/kg] | other results |
| --- | --- | --- | --- | --- | --- | --- | --- | --- | --- | --- | --- | --- | --- | --- | --- | --- | --- | --- | --- | --- |
| [Pt(trans-ℓ-1,2-diaminocyclohexane)] (3-acetyl-6-methyl-2H-pyran-2,4(3H)-dione)₂·H₂O [Example 2] | 8.7 ± 0.5 | 104 | 13.8 ± 3.6 | 164 | 19.7 ± 7.5 | 235 | 10.0 ± 1.1 | 119 | 6.3 ± 2.0 | 75 | 2.8 ± 1.6 | 33 | 0/6 | 0/6 | 1/6 | 0/6 | 0/6 | 0/6 | 61 |  |
| [Pt(trans-ℓ-1,2-diaminocyclohexane)](3-acetyl-6-methyltetrahydropyran-2,4-dione) (C₃H₇COO)·H₂O [Example 5] | 8.8 ± 1.6 | 104 | 10.2 ± 1.6 | 120 | 11.8 ± 1.7 | 139 | 16.3 ± 5.0 | 192 | 14.2 ± 5.0 | 167 |  |  | 0/6 | 0/6 | 0/6 | 0/6 | 0/6 |  | 111 |  |
| [Pt(trans-ℓ-1,2-diaminocyclohexane)](3-acetyl-6-methyl-2H-pyran-2,4(3H)-dione)(NO₃)·H₂O [Example 14] | 8.2 ± 0.4 | 98 | 11.3 ± 0.8 | 135 | 19.0 ± 8.5 | 226 | 18.0 ± 6.2 | 214 | 9.5 ± 1.2 | 113 | 5.0 | 60 | 0/6 | 0/6 | 2/6 | 1/6 | 0/6 | 0/6 | 73 |  |
| [Pt(trans-ℓ-1,2-diaminocyclohexane)] (3-acetyl-6-methyltetrahydropyran-2,4-dione)₂·H₂O [Example 1] | 8.5 ± 0.5 | 101 | 11.5 ± 1.2 | 137 | 14.2 ± 3.2 | 169 | 17.0 ± 3.0 | 202 | 15.5 ± 5.0 | 185 | 6.0 | 71 | 0/6 | 0/6 | 0/6 | 0/6 | 0/6 | 0/6 | 98 |  |
| [Pt(trans-ℓ-1,2-diaminocyclohexane)](3-acetyl-6-methyltetrahydropyran-2,4-dione)(CH₃COO)·H₂O [Example 3] | 9.2 ± 1.0 | 110 | 14.0 ± 2.6 | 167 | 23.0 ± 6.4 | 274 | 15.2 ± 4.1 | 181 | 7.7 ± 1.5 | 91 | 3.0 ± 2.0 | 36 | 0/6 | 0/6 | 2/6 | 0/6 | 0/6 | 0/6 | 61 | Survival days (mean ± standard deviation) [1, 9]: 12.8 ± 3.0 days; T/C (%) [1, 9]: 152%; Survival rate [1, 9]: 0/6 |
| N.N.O=C([O-])C1(C(=O)[O-])CCC1.[Pt+2] [CBDCA, Platinum(II) cis-diamine-1,1-cyclobutanedicarboxylate, reference compound] | 8.3 ± 0.5 | 98 | 9.3 ± 0.5 | 109 | 10.1 ± 1.3 | 119 | 13.1 ± 2.3 | 156 | 14.1 ± 3.7 | 166 | 9.6 ± 0.7 | 113 | 0/10 | 0/10 | 0/10 | 0/10 | 0/10 | 0/10 |  |  |
| cis-diamminedichloroplatinum (II) [CDDP, reference compound] |  |  |  |  |  |  |  |  |  |  |  |  |  |  |  |  |  |  | 15.3 | Survival days (mean ± standard deviation) [1, 10]: 15.2 ± 1.9 days and 12.0 ± 3.0 days and 13.0 ± 3.1 days and 10.5 ± 1.8 days; T/C (%) [1, 10]: 181% and 143% and 153% and 125%; Survival days (mean ± standard deviation) [1, 11]: 18.5 ± 6.0 days and 14.3 ± 2.9 days and 18.2 ± 0.4 days and 15.5 ± 1.4 days; T/C (%) [1, 11]: 220% and 170% and 214% and 185%; Survival days (mean ± standard deviation) [1, 12]: 17.0 ± 2.2 days and 15.5 ± 2.1 days and 20.2 ± 4.8 days and 22.3 ± 3.9 days; T/C (%) [1, 12]: 202% and 185% and 238% and 266%; Survival rate ([1]; dose 2.5 mg/kg i.p. on Day 1, 5 and 9): 0/6; Survival rate [1, 11]: 1/6 and 0/6; Survival rate [1, 12]: 0/6 and 1/6 |
